Measurements from the NIST ThermoML archive (doi:10.1021/je500424b).
Numbers after ± are expanded uncertainties.

Conditions: Gas, Cylindrical cavity resonance method

O=C=O [carbon dioxide]
Conditions	speed of sound [m/s]
260 K, 317.37 kPa	249.8 ± 0.051
260 K, 379.95 kPa	249.06 ± 0.051
260 K, 434.17 kPa	248.41 ± 0.05
260 K, 501.31 kPa	247.6 ± 0.05
260 K, 562.69 kPa	246.84 ± 0.05
260 K, 626.77 kPa	246.05 ± 0.05
260 K, 701.21 kPa	245.12 ± 0.05
260 K, 760.19 kPa	244.37 ± 0.05
260 K, 822.03 kPa	243.58 ± 0.05
260 K, 884.92 kPa	242.76 ± 0.049
270 K, 305.05 kPa	254.61 ± 0.051
270 K, 362.27 kPa	254.01 ± 0.051
270 K, 460.73 kPa	252.96 ± 0.051
270 K, 556.68 kPa	251.92 ± 0.051
270 K, 644.89 kPa	250.96 ± 0.051
270 K, 732.1 kPa	250 ± 0.051
270 K, 819.89 kPa	249.01 ± 0.051
270 K, 906.73 kPa	248.03 ± 0.05
270 K, 977.38 kPa	247.22 ± 0.05
280 K, 280.31 kPa	259.38 ± 0.052
280 K, 362.38 kPa	258.61 ± 0.052
280 K, 453.25 kPa	257.75 ± 0.052
280 K, 537.04 kPa	256.95 ± 0.052
280 K, 621.46 kPa	256.13 ± 0.052
280 K, 692.2 kPa	255.44 ± 0.052
280 K, 798.98 kPa	254.39 ± 0.052
280 K, 884.2 kPa	253.55 ± 0.051
280 K, 981.82 kPa	252.56 ± 0.051
290 K, 228.71 kPa	264.19 ± 0.053
290 K, 282.86 kPa	263.73 ± 0.053
290 K, 355.64 kPa	263.12 ± 0.053
290 K, 421.86 kPa	262.56 ± 0.053
290 K, 490.56 kPa	261.98 ± 0.053
290 K, 571.6 kPa	261.28 ± 0.053
290 K, 655.16 kPa	260.56 ± 0.053
290 K, 733.65 kPa	259.88 ± 0.053
290 K, 819.49 kPa	259.12 ± 0.052
300 K, 280.85 kPa	268.06 ± 0.054
300 K, 340.26 kPa	267.62 ± 0.054
300 K, 415.37 kPa	267.05 ± 0.054
300 K, 500.85 kPa	266.39 ± 0.054
300 K, 583.49 kPa	265.76 ± 0.054
300 K, 663.9 kPa	265.13 ± 0.054
300 K, 755.49 kPa	264.42 ± 0.053
300 K, 847.25 kPa	263.7 ± 0.053
300 K, 927.15 kPa	263.07 ± 0.053
300 K, 1017.3 kPa	262.36 ± 0.053
304.09 K, 434.91 kPa	268.66 ± 0.054
304.09 K, 544.65 kPa	267.86 ± 0.054
304.09 K, 772.25 kPa	266.17 ± 0.054
304.09 K, 868.88 kPa	265.45 ± 0.054
304.09 K, 968.58 kPa	264.69 ± 0.054
312.75 K, 394.2 kPa	272.63 ± 0.055
312.75 K, 441.68 kPa	272.31 ± 0.055
312.75 K, 534.77 kPa	271.69 ± 0.055
312.75 K, 636.23 kPa	271 ± 0.055
312.75 K, 729.55 kPa	270.37 ± 0.055
312.75 K, 858.54 kPa	269.49 ± 0.054
312.75 K, 959.38 kPa	268.8 ± 0.054
322.75 K, 314.03 kPa	277.28 ± 0.056
322.75 K, 412.26 kPa	276.69 ± 0.056
322.75 K, 522.36 kPa	276.02 ± 0.056
322.75 K, 624.83 kPa	275.4 ± 0.056
322.75 K, 735.59 kPa	274.72 ± 0.055
322.75 K, 832.63 kPa	274.13 ± 0.055
322.75 K, 929.78 kPa	273.53 ± 0.055
332.75 K, 316.28 kPa	281.3 ± 0.057
332.75 K, 415.5 kPa	280.76 ± 0.057
332.75 K, 520.66 kPa	280.19 ± 0.056
332.75 K, 544.84 kPa	280.05 ± 0.056
332.75 K, 664.72 kPa	279.39 ± 0.056
332.75 K, 755.5 kPa	278.89 ± 0.056
332.75 K, 857.33 kPa	278.33 ± 0.056
332.75 K, 958.15 kPa	277.78 ± 0.056
